Literature values, collected in patent US20050020536A1, “Highly pure fondaparinux sodium composition, process for preparing said composition and pharmaceutical compositions containing it as active principle” (priority 2003, published 2005).

Test system: factor Xa
Settings: general statement in the introduction, no method given

CO[C@H]1O[C@H](COS(=O)(=O)[O-])[C@@H](O[C@@H]2O[C@@H](C(=O)[O-])[C@@H](O[C@H]3O[C@H](COS(=O)(=O)[O-])[C@@H](O[C@@H]4O[C@H](C(=O)[O-])[C@@H](O[C@H]5O[C@H](COS(=O)(=O)[O-])[C@@H](O)[C@H](O)[C@H]5NS(=O)(=O)[O-])[C@H](O)[C@H]4O)[C@H](OS(=O)(=O)[O-])[C@H]3NS(=O)(=O)[O-])[C@H](O)[C@H]2OS(=O)(=O)[O-])[C@H](O)[C@H]1NS(=O)(=O)[O-].[Na+].[Na+].[Na+].[Na+].[Na+].[Na+].[Na+].[Na+].[Na+].[Na+] [Fondaparinux sodium, methyl O-2-deoxy-6-O-sulfo-2-(sulfoamino)-α-D-glucopyranosyl-(1→4)-O-β-D-glucopyranuronosyl-(1→4)-O-2-deoxy-3,6-di-O-sulfo-2-(sulfoamino)-α-D-glucopyranosyl-(1→4)-2-O-sulfo-α-D-glucopyranosyl-(1→4)-O-2-O-sulfo-L-idopyranurosyl-(1→4)-2-deoxy-6-O-sulfo-2-(sulfoamino)-α-D-glucopyranoside, decakissodium salt]
anti-factor Xa (anti Xa) activity: very powerful
